Values joined by “and” are separate entries in the source; they are usually repeats but may differ in a detail not shown here. Equal values may be shown once. Active and inactive are the calls of the source. How the calls were made is not given here.
Test system: rodent lifetime carcinogenesis bioassay, tumor incidence TD50
Experiment: carcinogenic potency in animals, long-term in vivo studies, CPDB compilation (AID 1745844)

CCCCC/C=N/N(C)C=O
TD50 (mouse, strain Swiss, females, by gavage, site: liver, lesion: hepatocellular carcinoma, dosed 52 weeks, study length 122 weeks): 180 mg/kg/day | TD50 (mouse, strain Swiss, females, by gavage, site: liver, lesion: hepatoma, benign, dosed 52 weeks, study length 122 weeks): 23.3 mg/kg/day | TD50 (mouse, strain Swiss, females, by gavage, site: liver, lesion: several types, types named in the paper, dosed 52 weeks, study length 122 weeks): 19.9 mg/kg/day | TD50 (mouse, strain Swiss, females, by gavage, site: lung, lesion: adenocarcinoma, dosed 52 weeks, study length 122 weeks): 8.73 mg/kg/day | TD50 (mouse, strain Swiss, females, by gavage, site: lung, lesion: adenoma, dosed 52 weeks, study length 122 weeks): 4.68 mg/kg/day | TD50 (mouse, strain Swiss, females, by gavage, site: lung, lesion: several types, types named in the paper, dosed 52 weeks, study length 122 weeks): 2.96 mg/kg/day | TD50 (mouse, strain Swiss, males, by gavage, site: liver, lesion: hepatocellular carcinoma, dosed 52 weeks, study length 128 weeks): 115 mg/kg/day | TD50 (mouse, strain Swiss, males, by gavage, site: liver, lesion: hepatoma, benign, dosed 52 weeks, study length 128 weeks): 45.4 mg/kg/day | TD50 (mouse, strain Swiss, males, by gavage, site: liver, lesion: several types, types named in the paper, dosed 52 weeks, study length 128 weeks): 31.4 mg/kg/day | TD50 (mouse, strain Swiss, males, by gavage, site: lung, lesion: adenocarcinoma, dosed 52 weeks, study length 128 weeks): 5.52 mg/kg/day | TD50 (mouse, strain Swiss, males, by gavage, site: lung, lesion: adenoma, dosed 52 weeks, study length 128 weeks): 6.63 mg/kg/day | TD50 (mouse, strain Swiss, males, by gavage, site: lung, lesion: several types, types named in the paper, dosed 52 weeks, study length 128 weeks): 1.92 mg/kg/day | TD50 (mouse, strain Swiss, males, by gavage, site: preputial gland, lesion: several types, types named in the paper, dosed 52 weeks, study length 128 weeks): 6.51 mg/kg/day | TD50 (mouse, strain Swiss, males, by gavage, site: preputial gland, lesion: squamous-cell carcinoma, dosed 52 weeks, study length 128 weeks): 8.03 mg/kg/day | TD50 (mouse, strain Swiss, males, by gavage, site: preputial gland, lesion: squamous-cell papilloma, dosed 52 weeks, study length 128 weeks): 93.3 mg/kg/day

O=[As]O
carcinogen call (mouse, strain Charles River CD1, both sexes, in drinking water, site: any site (literature study), lesion: benign tumor, dosed 104 weeks, study length 104 weeks): negative (inactive) | carcinogen call (mouse, strain Charles River CD1, both sexes, in drinking water, site: any site (literature study), lesion: malignant tumor, dosed 104 weeks, study length 104 weeks): negative (inactive) | carcinogen call (mouse, strain Charles River CD1, both sexes, in drinking water, site: any site (literature study), lesion: several types, types named in the paper, dosed 104 weeks, study length 104 weeks): negative (inactive) | carcinogen call (mouse, strain Charles River CD1, both sexes, in drinking water, site: liver, lesion: several types, types named in the paper, dosed 104 weeks, study length 104 weeks): negative (inactive) | carcinogen call (mouse, strain Charles River CD1, both sexes, in drinking water, site: lung, lesion: several types, types named in the paper, dosed 104 weeks, study length 104 weeks): negative (inactive) | carcinogen call (rat, strain Long-Evans BLU:(LE), both sexes, in drinking water, site: any site (literature study), lesion: malignant tumor, dosed 167 weeks, study length 167 weeks): negative (inactive) | carcinogen call (rat, strain Long-Evans BLU:(LE), both sexes, in drinking water, site: any site (literature study), lesion: one or several types, types not named, dosed 167 weeks, study length 167 weeks): negative (inactive) | TD50 (rat, strain Long-Evans BLU:(LE), both sexes, in drinking water, site: liver, lesion: one or several types, types not named, dosed 167 weeks, study length 167 weeks): 10.6 mg/kg/day (inactive) | TD50 (rat, strain Osborne-Mendel, both sexes, in feed, site: any site (literature study), lesion: malignant tumor, dosed 104 weeks, study length 104 weeks): 626 mg/kg/day (inactive) | carcinogen call (rat, strain Osborne-Mendel, both sexes, in feed, site: any site (literature study), lesion: several types, types named in the paper, dosed 104 weeks, study length 104 weeks): negative (inactive)

Cn1cc(C(=O)O)c(=O)c2ccc(/C=C/c3ccc([N+](=O)[O-])o3)nc21
TD50 (mouse, strain ICR/Jcl, both sexes, in feed, site: forestomach, lesion: squamous-cell carcinoma, dosed 54 weeks, study length 54 weeks): 10.3 mg/kg/day | TD50 (mouse, strain ICR/Jcl, both sexes, in feed, site: lung, lesion: adenoma, dosed 54 weeks, study length 54 weeks): 8.03 mg/kg/day | TD50 (mouse, strain ICR/Jcl, both sexes, in feed, site: lung, lesion: carcinoma, dosed 54 weeks, study length 54 weeks): 21.9 mg/kg/day | TD50 (mouse, strain ICR/Jcl, both sexes, in feed, site: thymus gland, lesion: lymphatic leukemia, dosed 54 weeks, study length 54 weeks): 26.5 mg/kg/day

N#Cc1ccc(C2CCCc3cncn32)cc1 (centres undefined)
carcinogen call (rat, strain Sprague-Dawley, females, by gavage, site: any site (literature study), lesion: several types, types named in the paper, dosed 104 weeks, study length 104 weeks): negative (inactive) | carcinogen call (rat, strain Sprague-Dawley, females, by gavage, site: liver, lesion: several types, types named in the paper, dosed 104 weeks, study length 104 weeks): negative (inactive) | carcinogen call (rat, strain Sprague-Dawley, females, by gavage, site: mammary gland, lesion: several types, types named in the paper, dosed 104 weeks, study length 104 weeks): negative (inactive) | carcinogen call (rat, strain Sprague-Dawley, males, by gavage, site: liver, lesion: several types, types named in the paper, dosed 104 weeks, study length 104 weeks): negative (inactive)

CC1=C(C(=O)OC(C)C)C(c2cccc([N+](=O)[O-])c2)C(C(=O)OC2CN(C(c3ccccc3)c3ccccc3)C2)=C(N)N1 (centres undefined)
carcinogen call (mouse, strain B6C3F1, females, by gavage, site: any site (literature study), lesion: several types, types named in the paper, dosed 78 weeks, study length 78 weeks): negative (inactive) | carcinogen call (mouse, strain B6C3F1, females, by gavage, site: liver, lesion: hepatocellular adenoma, dosed 78 weeks, study length 78 weeks): negative (inactive) | carcinogen call (mouse, strain B6C3F1, females, by gavage, site: liver, lesion: hepatocellular carcinoma, dosed 78 weeks, study length 78 weeks): negative (inactive) | TD50 (mouse, strain B6C3F1, females, by gavage, site: lung, lesion: alveolar/bronchiolar adenoma, dosed 78 weeks, study length 78 weeks): 217 mg/kg/day (inactive) | carcinogen call (mouse, strain B6C3F1, females, by gavage, site: lung, lesion: alveolar/bronchiolar carcinoma, dosed 78 weeks, study length 78 weeks): negative (inactive) | TD50 (mouse, strain B6C3F1, males, by gavage, site: any site (literature study), lesion: several types, types named in the paper, dosed 78 weeks, study length 78 weeks): 83.5 mg/kg/day (inactive) | carcinogen call (mouse, strain B6C3F1, males, by gavage, site: liver, lesion: hepatocellular adenoma, dosed 78 weeks, study length 78 weeks): negative (inactive) | carcinogen call (mouse, strain B6C3F1, males, by gavage, site: liver, lesion: hepatocellular carcinoma, dosed 78 weeks, study length 78 weeks): negative (inactive) | TD50 (mouse, strain B6C3F1, males, by gavage, site: lung, lesion: alveolar/bronchiolar adenoma, dosed 78 weeks, study length 78 weeks): 65 mg/kg/day (inactive) | TD50 (mouse, strain B6C3F1, males, by gavage, site: lung, lesion: alveolar/bronchiolar carcinoma, dosed 78 weeks, study length 78 weeks): 227 mg/kg/day (inactive) | carcinogen call (rat, strain F344/DuCrj, females, by gavage, site: any site (literature study), lesion: several types, types named in the paper, dosed 104 weeks, study length 104 weeks): negative (inactive) | carcinogen call (rat, strain F344/DuCrj, females, by gavage, site: liver, lesion: hepatocellular adenoma, dosed 104 weeks, study length 104 weeks): negative (inactive) | carcinogen call (rat, strain F344/DuCrj, females, by gavage, site: liver, lesion: hepatocellular carcinoma, dosed 104 weeks, study length 104 weeks): negative (inactive) | carcinogen call (rat, strain F344/DuCrj, males, by gavage, site: any site (literature study), lesion: several types, types named in the paper, dosed 104 weeks, study length 104 weeks): negative (inactive) | TD50 (rat, strain F344/DuCrj, males, by gavage, site: liver, lesion: hepatocellular adenoma, dosed 104 weeks, study length 104 weeks): 117 mg/kg/day (inactive) | TD50 (rat, strain F344/DuCrj, males, by gavage, site: liver, lesion: hepatocellular carcinoma, dosed 104 weeks, study length 104 weeks): 237 mg/kg/day (inactive)

Cc1ccc(N)c(C)c1
TD50 (mouse, strain CD-1 HaM/ICR, females, in feed, site: any site (literature study), lesion: several types, types named in the paper, dosed 77 weeks, study length 90 weeks): 12.2 mg/kg/day | carcinogen call (mouse, strain CD-1 HaM/ICR, females, in feed, site: liver, lesion: several types, types named in the paper, dosed 77 weeks, study length 90 weeks): negative (inactive) | TD50 (mouse, strain CD-1 HaM/ICR, females, in feed, site: lung, lesion: several types, types named in the paper, dosed 77 weeks, study length 90 weeks): 12.4 mg/kg/day and 13.5 mg/kg/day | TD50 (mouse, strain CD-1 HaM/ICR, males, in feed, site: any site (literature study), lesion: several types, types named in the paper, dosed 77 weeks, study length 90 weeks): 646 mg/kg/day (inactive) | TD50 (mouse, strain CD-1 HaM/ICR, males, in feed, site: liver, lesion: several types, types named in the paper, dosed 77 weeks, study length 90 weeks): 65.4 mg/kg/day (inactive) | carcinogen call (mouse, strain CD-1 HaM/ICR, males, in feed, site: lung, lesion: several types, types named in the paper, dosed 77 weeks, study length 90 weeks): negative (inactive) | TD50 (rat, strain Charles River CD (Sprague-Dawley), males, in feed, site: any site (literature study), lesion: several types, types named in the paper, dosed 77 weeks, study length 98 weeks): 16.8 mg/kg/day (inactive) | TD50 (rat, strain Charles River CD (Sprague-Dawley), males, in feed, site: liver, lesion: several types, types named in the paper, dosed 77 weeks, study length 98 weeks): 260 mg/kg/day (inactive)

Nc1cc(Cl)c(-c2cc(Cl)c(N)cc2Cl)cc1Cl
TD50 (mouse, strain dd, females, in feed, site: all sites, lesion: malignant lymphoma, dosed 104 weeks, study length 104 weeks): 109 mg/kg/day | TD50 (mouse, strain dd, females, in feed, site: any site (literature study), lesion: malignant tumor, dosed 104 weeks, study length 104 weeks): 87.2 mg/kg/day | TD50 (rat, strain Wistar, females, in feed, site: liver, lesion: hepatoma, dosed 104 weeks, study length 104 weeks): 735 mg/kg/day | TD50 (rat, strain Wistar, females, in feed, site: urinary bladder, lesion: transitional-cell carcinoma, dosed 104 weeks, study length 104 weeks): 2310 mg/kg/day | TD50 (rat, strain Wistar, males, in feed, site: urinary bladder, lesion: transitional-cell carcinoma, dosed 104 weeks, study length 104 weeks): 561 mg/kg/day

OC[C@H]1OC(OC[C@H]2O[C@H](O)[C@H](O)[C@@H](O)[C@@H]2O)[C@H](O)[C@@H](O)[C@@H]1O (some centres undefined)
carcinogen call (mouse, strain Charles River CD1, females, in feed, site: liver, lesion: one or several types, types not named, dosed 80 weeks, study length 80 weeks): negative (inactive) | TD50 (mouse, strain Charles River CD1, males, in feed, site: liver, lesion: hepatocellular adenoma, dosed 80 weeks, study length 80 weeks): 46300 mg/kg/day (inactive)

Source: PubChem BioAssay AID1745844 (Carcinogenic Potency Database (CPDB), 2022)
